“Also recorded” adds a separate entry of the source. Where two headings read alike, the source gives them in different places.
How the values were obtained:
[1] = Pharmacokinetics after oral gavage to male beagle dogs with different pre-treatments (Amgen study 150528); assay type: in vivo; conditions: 3 mg/kg PO; for Decrease in exposure / bioavailability with change of stomach pH: beagle dogs; for half-life: read-out: T½ (converted); for bioavailability: compared to Phase 1 of the same form, read-out: Relative % F
Description: The pharmacokinetics of AMG 397 were assessed following oral administration to male beagle dogs as either a suspension of the crystalline hydrate form of AMG 397 or an amorphous suspension in 2% HPMC, 0.01% Tween 80. The full protocol is described in Amgen study number 150528. The goal of this study was to determine if the amorphous material would lead to increases in bioavailability and if variability in dosing could be reduced. In addition, oncology patients could be receiving acid-reducing agents as co-medication, so it is important to determine if exposure is reduced with elevated stomach pH and if an amorphous formulation of AMG 397 could overcome the drug-drug interaction (DDI). For the studies below, Form 1 is the crystalline hydrate form of AMG 397 and amorphous is the amorphous form of AMG 397.
(§1) Briefly, during each phase five male beagle dogs were assigned to each group of the study. All animals were fasted for at least eight hours prior to dosing and through the first four hours of blood sample collection for each phase. Food was returned within 30 minutes following collection of the last blood sample at the four-hour collection interval. Each animal in Phase 1, received a single oral (PO) gavage dose of the appropriate test article formulation as outlined in the study design Table 6. Oral gavage dosing formulations were continuously stirred throughout dosing. The gavage tube was rinsed with approximately 10 mL of tap water following dosing (prior to removal of the gavage tube). Following each study phase a 7-day washout period was allowed prior to the dosing of the next phase. The same five dogs were assigned to either group 1 or group 2 formulations for the duration of the study.
(§2) Test Article Administration: A total of 10 male beagle dogs were initially assigned to study. All animals were fasted for at least eight hours prior to dosing and through the first four hours of blood sample collection for each phase, where applicable (food will be returned within 30 minutes following collection of the last blood sample at the four hour collection interval, where applicable). Total fasting time […] 24 hours.
(§3) Each animal in Phase 1, Groups 1 and 2 received a single oral (PO) gavage dose of the appropriate test article formulation as outlined in the following study design table. Oral gavage dosing formulations was continuously stirred throughout dosing. The gavage tube was rinsed with approximately 10 mL of tap water following dosing (prior to removal of the gavage tube). No pre-treatment will be required for Phase 1.
as §3, with “After a 7-day washout period, each” for “Each”, “2,” for “1,”, “land” for “1 and”, “were” for “was”, “Two hours prior to dosing, each animal received two 20 mg (40 mg total) oral tablets of famotidine followed by a 10 mL dose of deionized water.” for “No pre-treatment will be required for Phase 1.”
After another 7-day washout period, each animal in Phase 3, Groups land 2 received a single oral (PO) gavage dose of the appropriate test article formulation as outlined in the following study design table. Oral gavage dosing formulations were continuously stirred throughout dosing. The gavage tube was rinsed with approximately 10 mL of tap water following dosing (prior to removal of the gavage tube). Thirty minutes prior to dosing, each animal received an intramuscular dose of pentagastrin in phosphate buffered saline at a dose level of 0.006 mg/kg and a dose volume of 0.05 mL/kg.
After a final 7-day washout period, each animal in Phase 4, Groups 1 and 2 received a single oral (PO) gavage dose of the appropriate test article formulation as outlined in the following study design table. Oral gavage dosing formulations were continuously stirred throughout dosing. […]

[2] = Clinical observations in the beagle dog PK study; assay type: in vivo, male beagle dogs; conditions: 3 mg/kg PO, individual dogs, listed as AMG 397 Form 1
Description: as §1, §2
Different pre-treatments were assigned for each phase of the study to mimic several scenarios: • 1. No pre-treatment was administered for Phase 1 as it served as a control. • 2. During Phase 2, at 1 hour 54 minutes to 1 hour 58 minutes prior to dose administration, all animals were pretreated with two 20 mg (40 mg total) oral tablets of famotidine followed by a 10 mL dose of deionized water. […] This was used to determine the role of stomach pH on exposure. • 3. During Phases 3 and 4, at 30 to 38 minutes prior to dose administration, all animals were pretreated with a single intramuscular dose of pentagastrin in phosphate buffered saline, pH 7.4, at a dose level of 0.006 mg/kg and a dose volume of 0.05 mL/kg. The pentagastrin dose was used to ensure that the dogs stomach pH was normalized to pH ˜2.0 as it is known that the dogs stomach pH is often higher than that of humans under resting conditions. • 4. In addition, […], at 1 hour 3 minutes to 1 hour 6 minutes prior to dose administration and 4 hours 10 minutes to 4 hours 11 minutes following dose by oral gavage at a dose level of 3 mg/kg and a dose volume of 4 mL/kg. This final phase was used to study if P-gp played a role in absorption.

[3] = Moisture sorption profile (DVS); assay type: physicochemical; conditions: by 95% RH; listed as crystalline hydrate form of AMG 397
Description: Moisture Sorption: Moisture sorption data was collected using a Surface Measurement Systems DVSAdvantage instrument. Equilibrium criteria were set at ±0.001% weight change in 10 minutes with a maximum equilibrium time of 380 minutes.
Moisture Sorption: Moisture sorption data was collected using a Surface Measurement Systems DVSAdvantage instrument. Equilibrium criteria were set at ±0.001% weight change in 10 minutes with a maximum equilibrium time of 360 minutes.

[4] = Phase 1, no pre-treatment, male beagle dogs
[5] = Phase 2, famotidine pre-treatment (stomach pH ~6.5), male beagle dogs
[6] = male, beagle, dog, plasma, po, 3 mg/kg, Phase 3, pentagastrin pre-treatment (stomach pH ~2.0), male beagle dogs
[7] = male, beagle, dog, plasma, po, 3 mg/kg, Phase 4, pentagastrin pre-treatment + P-gp inhibitor GF120918, male beagle dogs

For `CO[C@]1(CN2CCN3CCCC[C@@H]3C2)/C=C/C[C@H](C)[C@@H](C)S(=O)(=O)NC(=O)c2ccc3c(c2)N(C[C@@H]2CC[C@H]21)C[C@@]1(CCCc2cc(Cl)ccc21)CO3` [AMG 397 Crystalline Hydrate], which AUCt [1, 4] is on record?
Its AUCt is 5.5 µM·h.

What about the Cl/F [1, 4] of the same compound?
Its Cl/F is 41.7 mL/min/kg.

What about the Cmax [1, 4] of the same compound?
The Cmax was 230 nM.

And the Tmax [1, 4]?
Its Tmax is 12.4 h.

What about the AUCt [1, 5] of the same compound?
The AUCt was 6.3 µM·h.

What about the Cl/F [1, 5] of the same compound?
Its Cl/F is 43.3 mL/min/kg.

And the Cmax [1, 5]?
Its Cmax is 260 nM.

What about the Cl/F ([1]; Phase 3, pentagastrin pre-treatment (stomach pH ~2.0), male beagle dogs) of the same compound?
Its Cl/F is 13.8 mL/min/kg.

And the “Decrease in exposure / bioavailability with change of stomach pH” value ([1]; listed as crystalline hydrate form of AMG 397, 3 mg/kg)?
Its value is no more than 2 fold.

What about the “Decrease in exposure / bioavailability with change of stomach pH” value ([1]; listed as crystalline hydrate form, 3 mg/kg) of the same compound?
The value was 2 fold.

And the half-life ([1]; male, beagle, dog, plasma, po, 3 mg/kg, Phase 1, no pre-treatment, male beagle dogs)?
Its half-life is 17.3 h.

What about the bioavailability ([1]; male, beagle, dog, plasma, po, 3 mg/kg, Phase 1, no pre-treatment) of the same compound?
The bioavailability was 100%.

What about the Tmax ([1]; male, beagle, dog, plasma, po, 3 mg/kg, Phase 2, famotidine pre-treatment (stomach pH ~6.5), male beagle dogs, read-out: Tmax) of the same compound?
The Tmax was 12.8 h.

And the half-life ([1]; male, beagle, dog, plasma, po, 3 mg/kg, Phase 2, famotidine pre-treatment (stomach pH ~6.5), male beagle dogs)?
Its half-life is 16.5 h.

And the bioavailability ([1]; male, beagle, dog, plasma, po, 3 mg/kg, Phase 2, famotidine pre-treatment)?
Its bioavailability is 113%.

And the AUC(0-t) [1, 6]?
Its AUC(0-t) is 11.3 µM·h.

What about the Cmax [1, 6] of the same compound?
The Cmax was 450 nM.

And the Tmax ([1]; male, beagle, dog, plasma, po, 3 mg/kg, Phase 3, pentagastrin pre-treatment (stomach pH ~2.0), male beagle dogs, read-out: Tmax)?
The Tmax was 13.2 h.

And the half-life [1, 6]?
Its half-life is 23.3 h.

What about the AUC(0-t) [1, 7] of the same compound?
The AUC(0-t) was 16.3 µM·h.

And the CL/F [1, 7]?
Its CL/F is 5.17 mL/min/kg.

What about the Cmax [1, 7] of the same compound?
Its Cmax is 600 nM.

What about the Tmax ([1]; male, beagle, dog, plasma, po, 3 mg/kg, Phase 4, pentagastrin pre-treatment + P-gp inhibitor GF120918, male beagle dogs, read-out: Tmax) of the same compound?
Its Tmax is 11.6 h.

And the half-life [1, 7]?
Its half-life is 25 h.

And the “Positive clinical findings (observation)” value ([2]; Phase 2 (Days 8 to 14), famotidine pre-treatment)?
The value was “Limb function impaired”.

What about the “Positive clinical findings (observation)” value ([2]; Phase 3 (Days 15 to 21), pentagastrin pre-treatment) of the same compound?
The value was “White, frothy vomitus; also recorded: Limb function impaired; also recorded: Wet hair on entire body; also recorded: Inappetence”.

What about the “Positive clinical findings (observation)” value ([2]; Phase 4 (Days 22 to 24), pentagastrin pre-treatment and inhibitor GF120918 pre- and post-treatment) of the same compound?
The value was “Large amount of white,”.

What about the “Moisture sorption weight gain” value [3] of the same compound?
Its value is 3.3%.
